Assay results from paper PMC9954641, “Molecular Insight into Drug Resistance Mechanism Conferred by Aberrant PIK3CD Splice Variant in African American Prostate Cancer” (Cancers, 2023).
Like-named read-outs stand apart in the source and are kept apart here.

Key:
Type in all cases: biochemical
[1] = biological target: T1, PI3Kδ-L (full-length PI3Kδ) (Homo sapiens, UniProt O00329); experiment: cell-free PI3 kinase activity assay at […]; also ATP-competitive binding assay ([…] less ATP bound)
T1 construct: gene PIK3CD; full-length PI3Kδ-L, V5-His tagged, Ni-NTA purified from transfected LNCaP and MDA PCa 2b cells
T1 sequence (O00329 1-1044): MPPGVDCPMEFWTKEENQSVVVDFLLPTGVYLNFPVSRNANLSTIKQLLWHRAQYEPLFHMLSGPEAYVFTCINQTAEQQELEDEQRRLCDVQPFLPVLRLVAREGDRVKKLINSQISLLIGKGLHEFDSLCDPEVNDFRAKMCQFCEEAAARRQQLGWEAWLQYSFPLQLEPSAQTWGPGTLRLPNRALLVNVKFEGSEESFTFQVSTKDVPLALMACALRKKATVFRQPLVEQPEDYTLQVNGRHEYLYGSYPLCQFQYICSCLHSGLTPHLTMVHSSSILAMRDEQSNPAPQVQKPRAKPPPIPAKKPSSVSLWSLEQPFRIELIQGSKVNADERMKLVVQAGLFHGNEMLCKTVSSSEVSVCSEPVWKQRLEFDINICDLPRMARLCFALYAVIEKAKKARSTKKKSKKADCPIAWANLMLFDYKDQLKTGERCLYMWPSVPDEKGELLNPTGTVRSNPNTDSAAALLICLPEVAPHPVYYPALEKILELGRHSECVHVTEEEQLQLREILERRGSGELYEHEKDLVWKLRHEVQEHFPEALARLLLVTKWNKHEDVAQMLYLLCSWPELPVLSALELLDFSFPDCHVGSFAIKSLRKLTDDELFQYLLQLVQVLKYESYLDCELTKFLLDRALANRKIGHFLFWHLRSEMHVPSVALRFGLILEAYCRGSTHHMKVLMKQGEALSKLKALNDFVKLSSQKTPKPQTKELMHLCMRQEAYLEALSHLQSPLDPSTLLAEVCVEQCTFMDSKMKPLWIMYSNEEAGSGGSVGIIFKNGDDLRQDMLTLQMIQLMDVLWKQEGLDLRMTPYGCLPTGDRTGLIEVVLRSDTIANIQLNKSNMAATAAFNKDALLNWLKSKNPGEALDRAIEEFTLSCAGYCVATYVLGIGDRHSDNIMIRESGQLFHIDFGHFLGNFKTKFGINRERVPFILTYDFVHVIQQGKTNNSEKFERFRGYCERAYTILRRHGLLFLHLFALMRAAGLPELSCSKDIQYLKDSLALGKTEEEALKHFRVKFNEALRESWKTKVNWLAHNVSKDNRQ

[2] = biological target: T1, PI3Kδ-L (full-length PI3Kδ); experiment: as above; remark: listed apart in the source
[3] = biological target: T1, PI3Kδ-L (full-length PI3Kδ); experiment: cell-free PI3 kinase activity assay at […] (no effect at […] on MDA PCa 2b-derived protein); also ATP-competitive binding assay ([…] less ATP bound)

Which “cell-free PI3 kinase activity assay at 1 and 10 μM; also ATP-competitive binding” value [1] does the source give for `Cn1c(=O)n(-c2ccc(C(C)(C)C#N)cc2)c2c3cc(-c4cnc5ccccc5c4)ccc3ncc21` [Dactolisib] here?
Its value is “Idelalisib, Seletalisib, Wortmannin, and Dactolisib effectively suppressed the PI3Kδ-L activities”.

`[O-][n+]1cccc(-c2nc3c(Cl)cccc3cc2[C@@H](Nc2ncnc3cccnc23)C(F)(F)F)c1` [Seletalisib] was tested. Which “cell-free PI3 kinase activity assay at 1 and 10 μM; also ATP-competitive binding” value [2] did it give?
The value was “Idelalisib, Seletalisib, Wortmannin, and Dactolisib effectively suppressed the PI3Kδ-L activities”.

`COC[C@H]1OC(=O)c2coc3c2[C@@]1(C)C1=C(C3=O)[C@@H]2CCC(=O)[C@@]2(C)C[C@H]1OC(C)=O` [Wortmannin] was tested. Which “cell-free PI3 kinase activity assay at 1 and 10 μM (no effect at 1 μM on MDA PCa)” value [3] did it give?
The value was “Idelalisib, Seletalisib, Wortmannin, and Dactolisib effectively suppressed the PI3Kδ-L activities”.
